Measured values: patent US20090163521A1, “Novel Pyrazolopyrimidinone Derivatives” (ORCHID RESEARCH LABORATORIES LIMITED, priority 2005, published 2009)

What was measured:
[1] = target: T1, purified recombinant COX-1 (Ovis aries, UniProt P05979); assay: COX-1 enzyme based assay; format: biochemical
T1 sequence (P05979 25-600): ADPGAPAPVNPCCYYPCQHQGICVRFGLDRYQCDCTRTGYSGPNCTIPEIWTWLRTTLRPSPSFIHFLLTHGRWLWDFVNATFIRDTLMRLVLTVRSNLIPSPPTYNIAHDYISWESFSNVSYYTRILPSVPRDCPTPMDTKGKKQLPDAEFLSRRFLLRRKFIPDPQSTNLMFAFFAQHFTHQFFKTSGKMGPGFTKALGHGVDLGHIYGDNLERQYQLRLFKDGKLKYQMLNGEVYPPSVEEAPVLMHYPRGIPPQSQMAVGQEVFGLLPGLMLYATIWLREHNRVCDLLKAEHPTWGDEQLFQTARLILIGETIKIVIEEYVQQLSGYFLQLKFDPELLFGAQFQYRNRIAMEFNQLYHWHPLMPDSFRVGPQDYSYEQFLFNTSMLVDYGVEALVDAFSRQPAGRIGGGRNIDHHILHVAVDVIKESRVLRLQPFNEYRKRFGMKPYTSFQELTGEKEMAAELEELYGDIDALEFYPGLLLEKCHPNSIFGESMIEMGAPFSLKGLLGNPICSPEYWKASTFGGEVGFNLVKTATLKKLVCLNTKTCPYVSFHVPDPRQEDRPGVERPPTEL
Method: (§1) COX-1 and COX-2 enzyme based assays were carried out to check the inhibitory potential of test compounds on the production of prostaglandin by purified recombinant COX-1/COX-2 enzyme (Proc. Nat. Acad. Sci. USA, 88, 2692-2696, 1991; J. Clin. Immunoassay 15, 116-120, 1992) In this assay, the potential of test compound to inhibit the production of prostaglandin either by COX-1 or COX-2 from arachidonic acid (substrate) was measured. This was an enzyme based in-vitro assay to evaluate selective COX inhibition with good reproducibility.
(§2) Arachidonic acid was converted to PGH2 (Intermediate product) by COX1/COX-2 in presence or absence of the test compound. The reaction was carried out at 37° C. and after 2 minutes it was stopped by adding 1M HCl. Intermediate product PGH2 was converted to a stable prostanoid product PGF2α by SnCl2 reduction. The amount of PGF2α produced in the reaction was inversely proportional to the COX inhibitory potential of the test compound. The prostanoid product was quantified via enzyme immunoassay (EIA) using a broadly specific antibody that binds to all the major forms of prostaglandin, using Cayman ELISA kit as per the procedure outlined by the manufacturer (Cayman Chemicals, Ann Arbor, USA).

[2] = target: T2, purified recombinant COX-2 (Homo sapiens, UniProt P35354); assay: COX-2 enzyme based assay; format: biochemical
T2 sequence (P35354 18-604): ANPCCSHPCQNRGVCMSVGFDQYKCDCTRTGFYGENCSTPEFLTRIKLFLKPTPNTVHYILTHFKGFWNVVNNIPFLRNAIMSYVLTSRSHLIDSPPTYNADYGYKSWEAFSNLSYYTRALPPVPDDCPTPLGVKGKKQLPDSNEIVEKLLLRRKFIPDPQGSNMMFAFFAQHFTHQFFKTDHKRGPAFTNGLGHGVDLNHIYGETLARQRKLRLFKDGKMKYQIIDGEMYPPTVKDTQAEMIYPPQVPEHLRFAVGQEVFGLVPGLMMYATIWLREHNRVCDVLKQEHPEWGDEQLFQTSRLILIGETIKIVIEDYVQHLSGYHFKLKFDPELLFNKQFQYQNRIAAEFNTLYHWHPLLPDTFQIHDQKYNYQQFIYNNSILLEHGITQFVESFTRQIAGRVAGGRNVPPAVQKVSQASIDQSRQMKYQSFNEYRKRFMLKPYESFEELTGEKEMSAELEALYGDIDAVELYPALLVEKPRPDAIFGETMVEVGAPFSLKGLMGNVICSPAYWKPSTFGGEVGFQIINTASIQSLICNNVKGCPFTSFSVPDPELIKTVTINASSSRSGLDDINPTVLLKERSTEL
Method: as §1, §2

TNF-α [3] = assay: In vitro measurement of TNF-α in LPS-stimulated human PBMC; format: cell-based; settings: LPS 1 μg/ml, 18 h
Method: This assay determines the effect of test compounds on the production of TNF α in human Peripheral Blood Mononuclear Cells (PBMC). Compounds were tested for their ability to inhibit the activity of TNF α in human PBMC. PBMC were isolated from blood (from healthy volunteers) using BD Vacutainer CPT™ (Cell preparation tube, BD Bio Science) and suspended in RPMI medium (Physiol. Res. 52: 593-598, 2003). The test compounds were pre-incubated with PBMC (0.5 million/incubation well) for 15 minutes at 37° C. and then stimulated with Lipopolysaccharide (Escherichia coli: B4; 1 μg/ml) for 18 h at 37° C. in 5% CO2. The levels of TNFα in cell culture medium were estimated using enzyme linked Immunosorbent assay performed in a 96 well format as per the procedure of the manufacturer (Cayman Chemical, Ann Arbor, USA).

TNF-α [4] = assay: LPS induced sepsis for measurement of TNF-α inhibition in mice; format: in vivo; settings: oral, serum 90 min after LPS
Method: The LPS induced sepsis model in mice was performed as described by Les sekut et al (J Lab Clin Med 1994; 124:813-20). Female Swiss albino mice were selected and the body weights were equivalent within each group. The mice were fasted for 20 hours with free access to water. The mice were dosed orally with the test compound suspended in vehicle containing 0.5% Tween 80 in 0.25% Carboxy-methylcellulose sodium salt. The control mice were administered the vehicle alone. After 30 min of oral dosing, mice were injected with 500 μg of Lipopolysaccharide (Escherichia coli, LPS: B4 from Sigma) in phosphate buffer saline solution into the intraperitoneal cavity of the mice. After 90 min of LPS administration mice were bled via retro-orbital sinus puncture. Blood samples were stored overnight at 4° C. Serum samples were collected by centrifuging the samples at 400 rpm for 15 min at 4° C. Immediately the serum samples were analysed for TNFα levels using commercially available mouse TNF-α ELISA kit (Amersham Biosciences) and assay was performed by the manufacturer instruction.

IL-6 = assay: In vitro measurement of IL-6 in LPS-stimulated human PBMC; format: cell-based; settings: LPS 1 μg/ml, 18 h
Method: This assay determines the effect of test compounds on the production of IL-6 in human PBMC (Physiol. Res. 52: 593-598, 2003). Compounds were tested for their ability to inhibit the activity of IL-6 in human PBMC. PBMC were isolated from blood using BD Vacutainer CPT™ Cell preparation tube (BD Bio Science) and suspended in RPMI medium. The test compounds were pre-incubated with PBMC (0.5 million/incubation well) for 15 minutes at 37° C. and then stimulated with Lipopolysaccharide (Escherichia coli: B4; 1 μg/ml) for 18 h at 37° C. in 5% CO2. The levels of IL-6 in cell culture medium were estimated using enzyme linked Immunosorbent assay performed in a 96 well format as per the procedure of the manufacturer (Cayman Chemical, Ann Arbor, USA).

COX-2 = target: T3, COX-2 (Homo sapiens, UniProt P35354); assay: Human whole blood assay (LPS-induced PGE2, COX-2 inhibition); format: cell-based; settings: LPS stimulated
T3 construct: Fresh blood was collected in tubes containing sodium heparin by vein puncture from healthy male volunteers; endogenous in cells; host or cells: human whole blood from healthy male volunteers, aspirin-pretreated and LPS-stimulated
T3 sequence (P35354 18-604): T2 sequence (P35354 18-604)
Method: Human whole blood provides a protein and cell rich milieu appropriate for the study of biochemical efficacy of anti-inflammatory compounds such as selective COX-2 inhibitors. […] This is correlating with the observation that COX-2 inhibitors have no effect on prostaglandin E2 (PGE2) production in normal blood. These inhibitors were active only after incubation of human blood with lipopolysaccharide (LPS), which induces COX-2 production in the blood.
Fresh blood was collected in tubes containing sodium heparin by vein puncture from healthy male volunteers. The subjects should have no apparent inflammatory conditions and not taken NSAIDs for at least 7 days prior to blood collection. Blood was preincubated with aspirin in vitro (12 μg/ml, at time zero) to inactivate COX-1 for 6 hours. Then test compounds (at various concentrations) or vehicle were added to blood. After that blood was stimulated with LPS B:4 (10 μg/ml) and incubated for another 18 h at 37° C. water bath. After which the blood was centrifuged, plasma was separated and stored at −80° C. (J. Pharmacol. Exp. Ther, 271, 1705, 1994; Proc. Natl. Acad. Sci. USA, 96, 7563, 1999). The plasma was assayed for PGE2 using Cayman ELISA kit as per the procedure outlined by the manufacturer (Cayman Chemicals, Ann Arbor, USA).

Row | Structure (SMILES) | inhibition at 10 µM (TNF-α [3]) | inhibition at 1 µM (IL-6) | further results
1 | CSc1ccc(-c2nc3c(c(N)nn3C)c(=O)n2-c2ccc(C)cc2C)cc1 [Example 23, 3-Amino-5-(2,4-dimethylphenyl)-1-methyl-6-[4-(methylthio)phenyl]-1,5-dihydro-4H-pyrazolo[3,4-d]pyrimidin-4-one] | 86.3% |  | inhibition at 1 µM ([1]; Conc. 1 μM): 51.6%; COX-2 Inhibition (%) ([2]; Conc. 1 μM): Not Active; TNF-α Inhibition (%) (TNF-α [4]; at 5 mg/kg): 92.02 (at 5 mg/kg) %
2 | CSc1ccc(-c2nc3c(c(N)nn3C)c(=O)n2-c2ccc(C(C)C)cc2)cc1 [Example 22, 3-Amino-5-(4-isopropylphenyl)-1-methyl-6-[4-(methylthio)phenyl]-1,5-dihydro-4H-pyrazolo[3,4-d]pyrimidin-4-one] | 54% | 12% | 
3 | CSc1ccc(-c2nc3[nH]nc(N)c3c(=O)n2-c2ccc(C)cc2)cc1 [Example 1, 3-amino-5-(4-methylphenyl)-6-[4-(methylthio)phenyl]-1,5-dihydro-4H-pyrazolo[3,4-d]pyrimidin-4-one] |  |  | inhibition at 0.25 µM (COX-2; 0.25 μM): 20.3%; inhibition at 10 µM (COX-2; 10 μM): 41.6%; melting point: > 285 °C
4 | CSc1ccc(-c2nc3[nH]nc(NC(C)=O)c3c(=O)n2-c2ccc(C)c(C)c2)cc1 [Example 36, N-[5-(3,4-Dimethylphenyl)-4-oxo-6-[(4-methylthio)phenyl]-4,5-dihydro-1H-pyrazolo[3,4-d]pyrimidin-3-yl]acetamide] | 29.9% | 12.7% | 
5 | CCOc1ccc(-n2c(-c3ccc(SC)cc3)nc3c(c(N)nn3C)c2=O)cc1 [Example 21, 3-Amino-5-(4-ethoxyphenyl)-1-methyl-6-[4-(methylthio)phenyl]-1,5-dihydro-4H-pyrazolo[3,4-d]pyrimidin-4-one] | 75.1% |  | TNF-α Inhibition (%) (TNF-α [4]; at 50 mg/kg): 75.15 (at 50 mg/kg) %
6 | CSc1ccc(-c2nc3c(c(NC(=O)C(F)(F)F)nn3C)c(=O)n2-c2ccc(C)cc2C)cc1 [Example 40, 2,2,2-trifluoro-N-{5-(2,4-dimethylphenyl)-1-methyl-6-[4-(methylthio)phenyl]-4-oxo-4,5-dihydro-1H-pyrazolo[3,4-d]pyrimidin-3-yl}acetamide] | 78% |  | inhibition at 10 µM ([1]; Conc. 10 μM): 3.11%; inhibition at 10 µM ([2]; Conc. 10 μM): 15.5%
7 | CSc1ccc(-c2nc3[nH]nc(N)c3c(=O)n2-c2ccc(Br)cc2)cc1 [Example 19, 3-Amino-5-(4-bromophenyl)-6-[(4-methylthio)phenyl]-1,5-dihydro-4H-pyrazolo[3,4-d]pyrimidin-4-one] | 64.8% | 15.9% | 
